Reference: ChEMBL document CHEMBL5126502, “Promising applications of steroid сonjugates for cancer research and treatment” (Eur J Med Chem, 2021)

Experiment: Cytotoxicity against human MCF7 cells incubated for 48 hrs by MTT assay
Format: toxicity, cell-based

C[C@@H]1CC[C@@]2(OC1)O[C@H]1C[C@H]3[C@@H]4CC[C@H]5C[C@@H](OC(=O)[C@@H](N)CO)CC[C@]5(C)[C@H]4CC[C@]3(C)[C@H]1[C@@H]2C
IC50 at 48 h: 1500 nM
